# Data as given in ChEMBL document CHEMBL1201862, “PubChem BioAssay data set” (2004).
# Calls of active or inactive are those of the source.
# How the values were obtained:
# Staphylococcus aureus = assay: Inhibitors of Bacterial Quorum Sensing Structure Activity Relationship (SAR) Analysis: Dose Response Assay. [Related pubchem assays: 700, 527 ]; assay type: functional, organism-based
# Nonstructural protein 1 = Nonstructural protein 1 (Influenza A virus, UniProt Q194T2); assay type: functional, Influenza A virus (A/California/07/2009(H1N1))
# Sequence of Nonstructural protein 1 (Q194T2 whole entry): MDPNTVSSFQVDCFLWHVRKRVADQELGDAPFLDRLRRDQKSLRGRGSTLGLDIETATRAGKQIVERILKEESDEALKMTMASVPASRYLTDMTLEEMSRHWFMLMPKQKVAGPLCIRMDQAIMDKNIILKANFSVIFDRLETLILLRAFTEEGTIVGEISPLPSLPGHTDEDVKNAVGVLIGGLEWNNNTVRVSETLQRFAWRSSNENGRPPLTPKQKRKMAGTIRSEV
# [1] = target: Matrix metalloproteinase-14 (Homo sapiens, UniProt P50281); assay: Dose Response confirmation of uHTS hits for a small molecule inhibitors of MT1-MMP activation in a fluorescence assay set 1.; assay type: functional
# Protein Rev = Protein Rev (Human immunodeficiency virus type 1 group M subtype B (isolate WMJ22)(HIV-1), UniProt P05866); assay: HIV-1 Rev-RRE RNA binding disruptors, dose response, biochemical, protein-RNA interaction (AID 842); design: species or system Human immunodeficiency virus 1
# Sequence of Protein Rev (P05866 whole entry): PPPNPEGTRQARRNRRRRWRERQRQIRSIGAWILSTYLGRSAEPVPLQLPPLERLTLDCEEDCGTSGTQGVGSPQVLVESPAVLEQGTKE
# [2] = target: T1, Melanin-concentrating hormone receptor 1 (Homo sapiens, UniProt Q99705); assay: Fluorescence-based counterscreen for antagonists of the G-protein coupled receptor 7 (GPR7): cell-based high throughput dose response assay to identify antagonists of the melanin-concentrating hormone receptor 1 (MCHR1).; assay type: functional
# T1 sequence (Q99705 whole entry): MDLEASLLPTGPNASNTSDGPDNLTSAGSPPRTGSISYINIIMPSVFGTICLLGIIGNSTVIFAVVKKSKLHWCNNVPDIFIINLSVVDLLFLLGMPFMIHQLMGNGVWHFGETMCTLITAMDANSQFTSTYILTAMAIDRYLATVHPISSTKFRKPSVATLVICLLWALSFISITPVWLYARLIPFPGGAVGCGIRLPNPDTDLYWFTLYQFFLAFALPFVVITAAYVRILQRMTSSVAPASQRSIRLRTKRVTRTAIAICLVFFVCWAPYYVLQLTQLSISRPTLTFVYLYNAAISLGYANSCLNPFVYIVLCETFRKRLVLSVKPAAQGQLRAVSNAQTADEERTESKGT
# [3] = target: Neuropeptides B/W receptor type 1 (Homo sapiens, UniProt P48145); assay: Fluorescence-based dose response cell-based high throughput screening assay to identify antagonists of the G-protein coupled receptor 7 (GPR7). [Related pubchem assays: 1952 (Screening assay (GPR7 antagonists).), 1880 (Summary AID.)]; assay type: functional
# [4] = target: T2, Heat shock 70 kDa protein 1A (Homo sapiens, UniProt P0DMV8); assay: Hsp70 inhibitors, biochemical, TR-FRET (AID 786)
# T2 sequence (P0DMV8 whole entry): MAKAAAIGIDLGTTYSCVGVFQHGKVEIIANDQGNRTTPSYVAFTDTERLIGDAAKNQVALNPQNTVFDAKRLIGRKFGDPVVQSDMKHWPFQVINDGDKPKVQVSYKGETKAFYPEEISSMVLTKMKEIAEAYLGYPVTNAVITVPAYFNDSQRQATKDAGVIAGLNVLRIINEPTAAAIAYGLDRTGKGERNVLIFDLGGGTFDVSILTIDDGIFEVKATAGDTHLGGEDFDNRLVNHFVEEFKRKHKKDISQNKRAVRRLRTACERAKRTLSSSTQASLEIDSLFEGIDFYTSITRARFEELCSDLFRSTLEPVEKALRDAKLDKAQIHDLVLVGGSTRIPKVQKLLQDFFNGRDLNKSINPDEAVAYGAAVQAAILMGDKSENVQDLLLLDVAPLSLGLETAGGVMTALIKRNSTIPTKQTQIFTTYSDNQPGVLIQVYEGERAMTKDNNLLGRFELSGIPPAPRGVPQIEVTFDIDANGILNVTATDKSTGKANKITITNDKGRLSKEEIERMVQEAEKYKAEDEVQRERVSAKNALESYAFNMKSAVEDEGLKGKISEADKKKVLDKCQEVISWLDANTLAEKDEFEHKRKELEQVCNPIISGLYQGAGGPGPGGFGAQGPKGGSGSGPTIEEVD
# [5] = target: T3, Replicative DNA helicase DnaB (Mycobacterium tuberculosis, UniProt P9WMR3); assay: DnaB intein splicing inhibitors, dose response, biochemical, cell-free fluorescence (AID 449749); assay type: functional
# T3 sequence (P9WMR3 whole entry): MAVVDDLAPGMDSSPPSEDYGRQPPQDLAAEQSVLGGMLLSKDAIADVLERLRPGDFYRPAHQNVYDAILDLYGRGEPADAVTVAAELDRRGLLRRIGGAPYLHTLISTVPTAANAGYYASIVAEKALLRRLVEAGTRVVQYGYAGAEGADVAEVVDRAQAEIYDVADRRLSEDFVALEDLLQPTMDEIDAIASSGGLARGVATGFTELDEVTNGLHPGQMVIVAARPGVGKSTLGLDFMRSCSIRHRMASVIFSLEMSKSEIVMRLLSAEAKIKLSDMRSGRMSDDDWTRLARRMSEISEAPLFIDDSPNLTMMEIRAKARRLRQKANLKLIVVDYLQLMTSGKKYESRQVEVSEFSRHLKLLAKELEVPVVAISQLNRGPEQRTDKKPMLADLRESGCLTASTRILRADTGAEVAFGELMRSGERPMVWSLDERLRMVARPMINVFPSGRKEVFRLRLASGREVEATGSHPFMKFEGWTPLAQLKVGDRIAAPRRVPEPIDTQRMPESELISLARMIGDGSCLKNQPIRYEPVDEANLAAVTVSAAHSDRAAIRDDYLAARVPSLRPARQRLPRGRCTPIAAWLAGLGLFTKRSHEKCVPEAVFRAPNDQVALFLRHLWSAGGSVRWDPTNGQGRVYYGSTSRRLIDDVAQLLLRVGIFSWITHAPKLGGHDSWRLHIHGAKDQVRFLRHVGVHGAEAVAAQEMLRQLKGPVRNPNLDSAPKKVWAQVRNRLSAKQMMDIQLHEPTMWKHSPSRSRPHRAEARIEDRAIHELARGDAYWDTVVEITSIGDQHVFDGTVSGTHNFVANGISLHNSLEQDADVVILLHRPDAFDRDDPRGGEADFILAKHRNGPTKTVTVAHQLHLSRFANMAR
# Protein RecA = target: T4, Protein RecA (Mycobacterium tuberculosis, UniProt P9WHJ3); assay: Fluorescence Cell-Free Homogeneous Dose Retest to Identify Inhibitors of RecA-Intein Splicing Activity. [Related pubchem assays (depositor defined):AID2097, AID2223, AID489010, AID492950]; assay type: functional
# T4 sequence (P9WHJ3 whole entry): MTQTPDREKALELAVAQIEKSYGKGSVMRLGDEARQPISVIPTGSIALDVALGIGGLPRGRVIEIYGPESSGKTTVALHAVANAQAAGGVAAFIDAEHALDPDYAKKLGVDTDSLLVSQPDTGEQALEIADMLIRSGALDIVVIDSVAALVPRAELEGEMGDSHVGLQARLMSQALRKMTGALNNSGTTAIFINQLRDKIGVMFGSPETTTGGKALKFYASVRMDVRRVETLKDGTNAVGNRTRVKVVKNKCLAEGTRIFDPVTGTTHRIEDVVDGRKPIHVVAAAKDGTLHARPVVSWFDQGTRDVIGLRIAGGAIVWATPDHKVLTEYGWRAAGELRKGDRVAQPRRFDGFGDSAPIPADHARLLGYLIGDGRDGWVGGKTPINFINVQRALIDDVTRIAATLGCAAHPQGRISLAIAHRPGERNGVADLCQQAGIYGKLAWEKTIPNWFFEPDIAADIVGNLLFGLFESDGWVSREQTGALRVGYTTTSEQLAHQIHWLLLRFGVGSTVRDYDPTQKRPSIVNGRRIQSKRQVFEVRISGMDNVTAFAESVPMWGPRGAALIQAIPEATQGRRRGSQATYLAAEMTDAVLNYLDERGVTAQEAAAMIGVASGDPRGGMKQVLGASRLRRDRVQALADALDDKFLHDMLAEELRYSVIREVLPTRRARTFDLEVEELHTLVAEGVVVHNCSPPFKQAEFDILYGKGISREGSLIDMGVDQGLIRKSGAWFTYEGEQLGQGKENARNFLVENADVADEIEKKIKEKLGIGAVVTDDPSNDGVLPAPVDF
# [6] = target: T2, Heat shock 70 kDa protein 1A; assay: Hsp70 inhibitors, probe displacement, primary screen, biochemical, fluorescence polarization (AID 583)
# [7] = target: T5, Serine/threonine-protein phosphatase (Homo sapiens, UniProt Q9BPW0); assay: Counterscreen for inhibitors of PP1: fluorescence-based biochemical high throughput dose response assay to identify inhibitors of Protein Phosphatase 5 (PP5). [Related pubchem assays: 2034 (Summary (PP5 inhibitors)), 1987 (PP5 inhibitors in singlate), 2235 (PP1 inhibitors in singlate)]
# T5 sequence (Q9BPW0 whole entry): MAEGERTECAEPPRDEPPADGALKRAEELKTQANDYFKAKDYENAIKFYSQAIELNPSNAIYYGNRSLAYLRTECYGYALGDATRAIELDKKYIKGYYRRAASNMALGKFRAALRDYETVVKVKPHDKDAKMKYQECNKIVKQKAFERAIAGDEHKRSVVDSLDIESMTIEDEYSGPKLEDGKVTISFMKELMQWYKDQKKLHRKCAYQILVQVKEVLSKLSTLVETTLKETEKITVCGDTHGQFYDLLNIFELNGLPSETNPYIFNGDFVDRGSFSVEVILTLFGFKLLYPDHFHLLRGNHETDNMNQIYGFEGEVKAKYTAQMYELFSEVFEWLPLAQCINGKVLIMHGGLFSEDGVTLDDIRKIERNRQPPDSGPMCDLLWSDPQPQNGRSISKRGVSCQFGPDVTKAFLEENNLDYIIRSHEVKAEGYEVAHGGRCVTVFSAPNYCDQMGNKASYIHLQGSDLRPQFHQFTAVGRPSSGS
# [8] = target: Serine/threonine-protein phosphatase PP1-alpha catalytic subunit (Homo sapiens, UniProt P62136); assay: PP1 phosphatase inhibitors, dose response, biochemical, fluorescence (AID 2403);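 note: phosphatase turnover of OMFP into fluorescent 3-O-methylfluorescein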
# Sequence of Serine/threonine-protein phosphatase PP1-alpha catalytic subunit (P62136 whole entry): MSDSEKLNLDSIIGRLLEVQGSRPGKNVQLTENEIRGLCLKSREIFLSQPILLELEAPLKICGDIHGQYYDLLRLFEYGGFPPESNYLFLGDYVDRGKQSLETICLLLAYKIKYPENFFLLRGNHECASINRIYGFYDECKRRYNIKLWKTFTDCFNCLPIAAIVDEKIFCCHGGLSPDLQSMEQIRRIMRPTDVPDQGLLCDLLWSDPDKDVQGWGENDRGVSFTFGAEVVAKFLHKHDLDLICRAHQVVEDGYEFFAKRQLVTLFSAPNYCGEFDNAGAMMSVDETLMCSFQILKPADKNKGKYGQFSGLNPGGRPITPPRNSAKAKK
# [9] = AlphaScreen signal interference compounds, dose response, artefact control for ARNT-TACC3 interaction inhibitor project, biochemical, luminescence, cherry-pick (AID 651705); assay type: functional;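 note: AlphaScreen bead proximity signal that flags compounds interfering with the detection technology; potency reflects signal decrease which marks the compound as an assay artifact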
# [10] = target: T6, Dual specificity protein phosphatase 3 (Homo sapiens, UniProt P51452); assay: VHR1 inhibitor Ki determination, SAR follow-up, biochemical, colorimetric (AID 2004)
# T6 sequence (P51452 whole entry): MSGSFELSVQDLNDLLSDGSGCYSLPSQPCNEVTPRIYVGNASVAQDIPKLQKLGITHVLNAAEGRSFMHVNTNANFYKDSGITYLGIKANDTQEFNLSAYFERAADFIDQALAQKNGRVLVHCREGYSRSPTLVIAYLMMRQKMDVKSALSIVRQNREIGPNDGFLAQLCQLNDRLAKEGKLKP
# HEK293 = assay: cells; conditions: Homo sapiens;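 note: cells exposed to compound for 14 hours overnight before viability readout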
# Tumor necrosis factor = Tumor necrosis factor (Homo sapiens, UniProt P01375); assay: TNFa-triggered NF-kB activation inhibitors, SAR follow-up, cell-based, revised (AID 2337); assay type: functional
# Sequence of Tumor necrosis factor (P01375 whole entry, the tested form may be a part): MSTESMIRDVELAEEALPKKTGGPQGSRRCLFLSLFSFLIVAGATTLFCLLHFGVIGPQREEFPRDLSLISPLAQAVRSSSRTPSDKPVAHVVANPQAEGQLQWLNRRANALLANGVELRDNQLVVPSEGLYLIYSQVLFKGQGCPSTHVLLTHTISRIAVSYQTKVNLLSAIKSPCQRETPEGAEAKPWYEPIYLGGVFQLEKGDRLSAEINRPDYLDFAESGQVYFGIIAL
# [11] = target: Nucleotide-binding oligomerization domain-containing protein 1 (Homo sapiens, UniProt Q9Y239); assay: NOD1 signaling inhibitors, SAR follow-up, revised (AID 2333); assay type: functional
# Sequence of Nucleotide-binding oligomerization domain-containing protein 1 (Q9Y239 whole entry, the tested form may be a part): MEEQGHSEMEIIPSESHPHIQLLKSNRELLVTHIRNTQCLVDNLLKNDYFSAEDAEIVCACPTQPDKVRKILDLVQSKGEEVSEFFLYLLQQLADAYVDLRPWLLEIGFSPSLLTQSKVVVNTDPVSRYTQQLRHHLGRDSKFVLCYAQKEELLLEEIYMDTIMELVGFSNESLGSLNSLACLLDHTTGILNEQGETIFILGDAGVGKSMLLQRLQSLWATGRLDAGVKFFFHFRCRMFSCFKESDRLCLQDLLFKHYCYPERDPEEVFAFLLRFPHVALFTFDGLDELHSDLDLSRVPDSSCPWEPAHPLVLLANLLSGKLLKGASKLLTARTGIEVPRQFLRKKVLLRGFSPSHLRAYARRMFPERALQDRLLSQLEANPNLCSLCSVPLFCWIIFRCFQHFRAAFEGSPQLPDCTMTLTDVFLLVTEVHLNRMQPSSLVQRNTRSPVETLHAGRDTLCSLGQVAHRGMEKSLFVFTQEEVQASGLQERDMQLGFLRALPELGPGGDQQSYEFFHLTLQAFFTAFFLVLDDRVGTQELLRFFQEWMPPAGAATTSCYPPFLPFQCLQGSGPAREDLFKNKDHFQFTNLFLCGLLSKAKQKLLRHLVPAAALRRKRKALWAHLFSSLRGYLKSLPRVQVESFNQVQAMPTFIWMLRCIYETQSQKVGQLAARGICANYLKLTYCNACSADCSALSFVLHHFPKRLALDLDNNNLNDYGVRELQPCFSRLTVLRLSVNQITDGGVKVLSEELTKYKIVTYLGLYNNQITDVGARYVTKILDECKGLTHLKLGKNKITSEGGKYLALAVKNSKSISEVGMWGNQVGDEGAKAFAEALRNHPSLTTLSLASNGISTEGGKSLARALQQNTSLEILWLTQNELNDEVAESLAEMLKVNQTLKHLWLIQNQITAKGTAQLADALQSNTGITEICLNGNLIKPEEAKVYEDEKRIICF
# [12] = target: Nucleotide-binding oligomerization domain-containing protein 2 (Homo sapiens, UniProt Q9HC29); assay: PubChem AID 2334; assay type: functional
# [13] = target: T1, Melanin-concentrating hormone receptor 1; assay: Late-stage fluorescence-based counterscreen for antagonists of the G-protein coupled receptor 7 (GPR7): cell-based dose response assay to identify antagonists of the melanin-concentrating hormone receptor 1 (MCHR1). [Related pubchem assays (depositor defined):AID1861, AID1880, AID1952, AID2148, AID2251, AID2257, AID485339]; assay type: functional
# [14] = target: G2/mitotic-specific cyclin-B1 (Homo sapiens, UniProt P14635); assay: G2/M cell cycle arrest in HeLa, late-stage follow-up, mechanism study for Wee1 degradation inhibitor project, FACS, panel member Cyclin B Degradation (AID 2088)
# Sequence of G2/mitotic-specific cyclin-B1 (P14635 whole entry): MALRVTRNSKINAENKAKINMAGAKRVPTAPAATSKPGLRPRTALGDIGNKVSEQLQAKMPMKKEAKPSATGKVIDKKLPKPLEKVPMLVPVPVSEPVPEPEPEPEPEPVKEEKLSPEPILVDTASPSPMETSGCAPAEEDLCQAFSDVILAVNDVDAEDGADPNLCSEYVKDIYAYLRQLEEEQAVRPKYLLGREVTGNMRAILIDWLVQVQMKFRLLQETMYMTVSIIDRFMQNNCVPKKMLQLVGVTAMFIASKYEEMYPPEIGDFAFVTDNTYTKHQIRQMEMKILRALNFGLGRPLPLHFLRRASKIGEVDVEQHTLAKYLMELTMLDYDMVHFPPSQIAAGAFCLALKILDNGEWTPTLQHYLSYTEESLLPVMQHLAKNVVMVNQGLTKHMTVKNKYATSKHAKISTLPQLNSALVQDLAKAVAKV
# Wee1-like protein kinase = Wee1-like protein kinase (Homo sapiens, UniProt P30291); assay: G2/M cell cycle arrest in HeLa, late-stage follow-up, mechanism study for Wee1 degradation inhibitor project, FACS, panel member Wee1 Degradation (AID 2088)
# Sequence of Wee1-like protein kinase (P30291 whole entry): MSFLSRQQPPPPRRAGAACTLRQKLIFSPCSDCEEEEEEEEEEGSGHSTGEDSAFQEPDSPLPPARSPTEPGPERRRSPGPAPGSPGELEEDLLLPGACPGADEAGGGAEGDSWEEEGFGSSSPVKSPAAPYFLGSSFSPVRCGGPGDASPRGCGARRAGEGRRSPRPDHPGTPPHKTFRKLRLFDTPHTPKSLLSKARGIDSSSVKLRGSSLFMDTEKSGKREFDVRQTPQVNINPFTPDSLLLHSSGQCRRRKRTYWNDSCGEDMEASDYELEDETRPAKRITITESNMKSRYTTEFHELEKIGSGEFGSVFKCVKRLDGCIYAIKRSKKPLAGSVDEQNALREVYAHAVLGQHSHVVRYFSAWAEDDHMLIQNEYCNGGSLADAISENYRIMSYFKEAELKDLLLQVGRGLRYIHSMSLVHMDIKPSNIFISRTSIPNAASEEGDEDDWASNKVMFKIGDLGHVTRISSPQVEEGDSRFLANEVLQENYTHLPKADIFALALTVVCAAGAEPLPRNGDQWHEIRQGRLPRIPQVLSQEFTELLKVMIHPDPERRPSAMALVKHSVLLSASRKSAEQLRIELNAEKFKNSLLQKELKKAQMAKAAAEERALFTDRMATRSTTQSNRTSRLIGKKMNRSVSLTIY
# [15] = target: T7, Tyrosine-protein phosphatase non-receptor type 22 (Homo sapiens, UniProt Q9Y2R2); assay: LYP (PTPN22) phosphatase inhibitor potency, SAR follow-up, biochemical, pCAP fluorogenic substrate, fluorescence, set 3 (AID 449727); assay type: functional
# T7 sequence (Q9Y2R2 whole entry): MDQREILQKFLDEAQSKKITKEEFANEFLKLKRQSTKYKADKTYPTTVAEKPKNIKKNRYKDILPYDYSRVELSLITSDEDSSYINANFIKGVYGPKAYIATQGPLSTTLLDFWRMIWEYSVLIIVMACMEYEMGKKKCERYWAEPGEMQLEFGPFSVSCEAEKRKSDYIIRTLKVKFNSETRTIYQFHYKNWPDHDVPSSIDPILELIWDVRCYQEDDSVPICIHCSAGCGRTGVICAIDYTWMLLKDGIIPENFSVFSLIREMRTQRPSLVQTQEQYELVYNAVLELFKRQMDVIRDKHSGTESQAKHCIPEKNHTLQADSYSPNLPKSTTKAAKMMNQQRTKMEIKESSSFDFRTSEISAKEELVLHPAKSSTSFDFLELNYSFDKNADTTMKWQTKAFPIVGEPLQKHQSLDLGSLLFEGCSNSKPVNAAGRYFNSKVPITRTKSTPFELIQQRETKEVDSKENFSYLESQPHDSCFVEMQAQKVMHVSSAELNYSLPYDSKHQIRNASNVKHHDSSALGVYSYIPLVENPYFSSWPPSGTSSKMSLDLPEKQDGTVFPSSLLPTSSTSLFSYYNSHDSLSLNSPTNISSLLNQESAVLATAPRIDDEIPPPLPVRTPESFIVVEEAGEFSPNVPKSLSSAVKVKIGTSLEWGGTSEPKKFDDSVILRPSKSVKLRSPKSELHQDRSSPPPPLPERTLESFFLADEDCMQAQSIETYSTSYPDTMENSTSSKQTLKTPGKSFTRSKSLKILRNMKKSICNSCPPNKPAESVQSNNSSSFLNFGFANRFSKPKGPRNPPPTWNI
# [16] = target: T8, Tyrosine-protein phosphatase non-receptor type 7 (Homo sapiens, UniProt P35236); assay: HePTP (PTPN7) phosphatase inhibitor potency, SAR follow-up, biochemical, set 2 (AID 449736); assay type: functional
# T8 sequence (P35236 whole entry): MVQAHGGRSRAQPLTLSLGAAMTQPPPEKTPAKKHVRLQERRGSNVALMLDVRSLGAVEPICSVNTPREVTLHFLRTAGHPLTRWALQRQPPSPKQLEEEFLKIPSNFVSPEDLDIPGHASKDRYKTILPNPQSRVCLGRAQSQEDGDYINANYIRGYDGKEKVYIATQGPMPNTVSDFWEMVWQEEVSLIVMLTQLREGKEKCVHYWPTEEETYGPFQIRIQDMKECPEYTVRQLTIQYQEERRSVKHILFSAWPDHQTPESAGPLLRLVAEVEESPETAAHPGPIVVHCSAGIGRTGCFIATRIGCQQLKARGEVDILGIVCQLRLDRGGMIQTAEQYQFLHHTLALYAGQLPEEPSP
# [17] = target: T8, Tyrosine-protein phosphatase non-receptor type 7; assay: redox-dependent HePTP inhibition, mechanism study, biochemical, fluorescence (AID 2068); assay type: functional
# [18] = target: T9, Dual specificity protein phosphatase 6 (Rattus norvegicus, UniProt Q64346); assay type: functional;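 note: confirmatory in vitro dose-response testing of MKP-3 inhibition; recombinant His-tagged MKP-3 made in E. coli BL21 with OMFP substrate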
# T9 sequence (Q64346 whole entry): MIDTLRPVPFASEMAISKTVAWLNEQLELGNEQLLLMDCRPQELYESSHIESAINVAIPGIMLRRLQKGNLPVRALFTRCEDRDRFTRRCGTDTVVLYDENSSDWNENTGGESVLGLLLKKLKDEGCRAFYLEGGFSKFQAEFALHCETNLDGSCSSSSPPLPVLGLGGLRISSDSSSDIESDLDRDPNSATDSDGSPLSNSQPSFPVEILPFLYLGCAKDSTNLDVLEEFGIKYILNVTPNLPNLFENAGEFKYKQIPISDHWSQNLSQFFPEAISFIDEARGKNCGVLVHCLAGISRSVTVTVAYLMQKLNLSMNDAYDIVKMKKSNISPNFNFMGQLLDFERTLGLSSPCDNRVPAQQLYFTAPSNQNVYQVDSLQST
# [19] = target: T6, Dual specificity protein phosphatase 3; assay: SAR VHR1 Fluorescent Assay for In Vitro dose response studies Set 2. [Related pubchem assays (depositor defined):AID1654, AID1661, AID1878]; assay type: functional
# [20] = target: Tyrosine-protein phosphatase non-receptor type 12 (Homo sapiens, UniProt Q05209); assay: SAR Selectivity Analysis of small molecule inhibitors of PEST using pCAP in a fluorescence assay. [Related pubchem assays (depositor defined):AID1779, AID1784, AID2135]; assay type: functional
# [21] = target: T7, Tyrosine-protein phosphatase non-receptor type 22; assay: SAR LYP1 Fluorescent Assay using OMFP substrate for In Vitro dose response studies - Set 3. [Related pubchem assays (depositor defined):AID1779, AID1784, AID2140, AID2686]; assay type: functional
structure (smiles),measurement,setting,value
CC1CCN(C(C(=O)Nc2ccc3c(c2)OCO3)c2ccccc2)CC1 (stereo not drawn),IC50,Staphylococcus aureus,976 nM (active)
CC1=NN(c2ccccc2)C(=O)C1N=Nc1ccc(N)cc1 (stereo not drawn),IC50,Nonstructural protein 1,10.5 µM (active)
same,IC50,[1],> 80 µM (inactive)
same,IC50,Protein Rev,> 79.4 µM (not active)
O=C(Oc1ccc(C(=S)N2CCOCC2)cc1)c1ccccc1,IC50,[2],> 14.6 µM (not active)
same,IC50,[3],> 43.8 µM (not active)
CC(=O)N1CCC2(CC1)C(C#N)=C(N)Oc1[nH]nc(C)c12,IC50,[4],> 100 µM (not active)
same,AC50,[5],8.21 µM (active)
same,EC50,Protein RecA,1.36 µM (active)
same,IC50,[6],> 100 µM (not active)
COc1cc(NS(=O)(=O)c2ccc(Nc3nc(-c4ccccn4)cs3)cc2)nc(OC)n1,IC50,[7],> 67 µM (not active)
same,IC50,[8],3.63 µM (active)
same,AC50,[9],88.3 µM (active)
O=C(O)c1cccc2c1NC(c1ccc(Cl)cc1)C1CC=CC21 (stereo not drawn),Ki,[10],119 µM (inactive)
COc1ccc(-c2cc(C(=O)NC3CCCc4c3cnn4-c3ccccc3F)n(C)n2)cc1 (stereo not drawn),IC50,HEK293,> 20 µM (inactive)
same,IC50,Tumor necrosis factor,1.36 µM (active)
same,IC50,[11],990 nM (active)
same,IC50,[12],1.34 µM (active)
COc1ccc(Oc2c(Cl)cnn(-c3cc(Cl)cc(Cl)c3)c2=O)cc1,IC50,[13],1.1 µM (active)
Cc1cc(O)nc(-n2nc(C)cc2NC(=O)c2ccccc2Br)n1,EC50,[14],> 49.7 µM (inactive)
same,EC50,Wee1-like protein kinase,> 49.7 µM (inactive)
CCc1ccc(/N=C2/NC(=O)/C(=C/c3ccc(OCC(=O)O)c(Cl)c3)S2)cc1,IC50,[15],11.2 µM (active)
same,IC50,[16],2.71 µM (active)
same,IC50,[17],2.89 µM (active)
same,IC50,[18],65.7 µM (active)
same,IC50,[19],4.83 µM (active)
same,IC50,[20],7.69 µM (active)
same,IC50,[21],21.7 µM (active)
